Measured values taken from ChEMBL document CHEMBL3102855, “Synthesis of long-chain fatty acid derivatives as a novel anti-Alzheimer's agent” (Bioorg Med Chem Lett, 2014).
Activity calls are given as the source filed them. No cut-off for these calls is given here.

System: Cortical neurone
Assay: Induction of dendrite extension in rat cortical neurons assessed as inhibition of amyloid beta (25 to 35)-induced neuronal degeneration at 1 uM after 4 days by fluorescence microscopic analysis
Assay type: functional

SMILES | Activity
CCCCCCCCCCCCCCCCCCCCCC(=O)O | Active
CCCCCCCCCCCCCCCCC/C=C\CCCCCCCCCCCCCCCCCCCCCC(=O)O | Active
CCCCC/C=C\CCCCCC/C=C\CCCCCCCCCCCCCCCCCCCCCC(=O)O | Active
CCCCCCCCCCCCC/C=C\CCCCCCCCCCCCC(=O)O | Active
CCCCCCCCCC/C=C\C/C=C\CCCCCCCCCCCCCCCCCCCCCC(=O)O | Active
CC/C=C\CCCCCCCCC/C=C\CCCCCCCC(=O)O | Active
CCCCCCCCCCCCC/C=C\CCCCCCCCCCCCCO | Active
CCCCCCCCCCCCC/C=C\CCCCCCCCCCCCCCCCCCCCCC(=O)O | Active
CC/C=C\CCCCCCCCC/C=C\CCCCCCCCCCC(=O)O | Active
CCCCCCC/C=C\CCCC/C=C\CCCCCCCCCCCCCCCCCCCCCC(=O)O | Active
CCCCCCCCCCCCCCCCCCCCCCCCCCCCCCCCCCCCC(=O)O | Active
CC/C=C\CCCCCCCCC/C=C\CCC(=O)O | Active
CCCCCCCCCCCCC/C=C\CCCCCCCCCCCCCCCCCCCCCCO | Active
CCCCCCCCCCCCCCCCCCCCCCCCCCCC(=O)O | Active
CCCCCCCCCC/C=C\CCCCCCCCCC(=O)O | Active
CC/C=C\CCCCCCCCC/C=C\CCCCCCCCCCCCCCCCCCCCCCCCCCCCCC(=O)O | Active
CC/C=C\CCCCCCCCC/C=C\CCCCCCCCCCCCCCCCCCCCCC(=O)O | Active
